Data: patent EP3632468B1, “5-IODO-4-THIO-2'-DEOXYURIDINE FOR USE AS A RADIOSENSITIZER IN RADIOTHERAPY” (Uniwersytet Gdanski, priority 2018, dated 2020)

Columns and labels:
Format in all cases: cell-based
[1] = system: human breast cancer cells - MCF-7 line; assay: MTT cytotoxicity assay, MCF-7; settings: MCF7, light or radiation study, 100 µM ISdU, 48 h incubation, no irradiation, read-out: MCF-7 cells viability compared to the control
Protocol: (§1) Cytotoxic activity was determined using the MTT assay after incubation of MCF-7 (CLS, Eppelheim) or HDFa (Gibco Invitrogen) cells with ISdU. The MCF-7 cells were grown in RPMI supplemented with 10% FBS and antibiotics (streptomycin and penicillin) at a concentration of 100 U·mL^-1. The HDFa cells were grown in DMEM supplemented with 10% FBS and antibiotics (streptomycin and penicillin) at the same concentration. Cells at a density of 4·10^3 per well were seeded into a 96-well plate and incubated (37°C, 5% CO2) for 24 h. Then, the medium was freshly changed, and the cells were treated with ISdU at concentrations of 0 (control), 10^-4, 5·10^-5, 10^-5, 10^-6, 10^-7 and 10^-8 M. Cells were incubated with ISdU for 24 h and 48 h. After this time, the aqueous MTT salt solution at a concentration of 4 mg·mL^-1 was added to each well. After 4 h of incubation, the medium was removed and 200 µL of dimethylsulfoxide (DMSO) was added to dissolve the formazan crystals. The absorbance was measured at 570 nm (with 660 nm taken as the reference) on an EnSpire microplate reader (PerkinElmer). […] The results were analyzed with the use of GraphPad Prism software. The statistical evaluation of treated samples and untreated controls was calculated using one-way analysis of variance (ANOVA) followed by […] multiple comparison test. […]

[2] = system: human dermal fibroblasts - HDFa line; assay: MTT cytotoxicity assay, HDFa; settings: ISdU 10^-8 to 10^-4 M, 24 h and 48 h incubation, no irradiation
Protocol: as §1

[3] = system: MCF-7 cells (human breast cancer cells); assay: Cytometric analysis of phosphorylation of histone H2A.X (double strand break marker); settings: 10^-4 M ISdU 48 h
Protocol: One of the damages caused by ISdU are double strand break of DNA, whose molecular marker is phosphorylation of histone H2A.X. To confirm the application of the compound in radiotherapy, the cytometric analysis of phosphorylation of histone H2A.X, molecular marker of double strand break of DNA was carried out.
The MCF-7 cells (human breast cancer cells) were grown up in RPMI medium supplemented with 10 % FBS (fetal bovine serum) and antibiotics (penicillin and streptomycin) at a concertation of 100 U · ml^-1. The cells were treated with ISdU at the concentration of 10^-4 M and incubated (37°C, 5% CO2) for 48 h. Upon this time, plate cultures were X-ray irradiated with doses of 1 Gy and 2 Gy, using of e.g. Cellrad X-ray cabinet, Faxitron X-ray Corporation, and incubated for 1 h in the same condition. Next, the cells were detached with solution of Accutase (Life Technologies, UK), fixed and permeabilized (fixation and permeabilization was performed by the manufacturer's protocol FlowCellect™ Histone H2A.X Phosphorylation Assay Kit, Merck). Prepared cells were analyzed by cytometric using of e.g. Guava easyCyte™, Merck. The experiment was performed in triplicated. The non-treated cells were a control.

SMILES: O=c1[nH]c(=S)c(I)cn1[C@H]1C[C@H](O)[C@@H](CO)O1 [ISdU, 5-iodo-4-thio-2'-deoxyuridine]
- viability at 100 µM [1]: 91 ± 3%
- HDFa cell viability [2]: a statistically significant decrease in cell viability was not observed
- γH2A.X positive cells ([3]; 1 Gy X-ray, measured 1 h after irradiation (control 26.56 ± 1.14%)): 35.15 ± 1.48%
- γH2A.X positive cells ([3]; 2 Gy X-ray, measured 1 h after irradiation (control 49.38 ± 3.8%)): 60.25 ± 2.98%
